Measured values from PMC8512562, “Semisynthetic Derivatives of Selected Amaryllidaceae Alkaloids as a New Class of Antimycobacterial Agents” (Molecules, 2021).
In brackets after ≈: the same amount, converted by molar mass. Where two headings read alike, the source gives them in different places.

Assays:
[1] = test system: Mycobacterium tuberculosis H37Ra; test: Antimycobacterial screening (microdilution broth, resazurin) against M. tuberculosis H37Ra; assay type: cell-based; settings: for MIC: Mycobacterium tuberculosis; for MIC values for standards, range, M. tuberculosis: range of MIC of the standards in the assay
[2] = test system: Mycobacterium smegmatis DSM 43465 (ATCC 607); test: Antimycobacterial screening (microdilution broth, resazurin) against M. smegmatis; assay type: cell-based; settings: for MIC: Mycolicibacterium smegmatis, read-out: MIC M. smegmatis; for MIC values for standards, range, M. smegmatis: range of MIC of the standards in the assay
[3] = test system: Mycobacterium aurum DSM 43999 (ATCC 23366); test: Antimycobacterial screening (microdilution broth, resazurin) against M. aurum; assay type: cell-based; settings: for MIC: Mycolicibacterium aurum, read-out: MIC M. aurum; for MIC values for standards, range, M. aurum: range of MIC of the standards in the assay
HepG2 cells = test: cells; assay type: cell-based, Human; settings: for IC50: Homo sapiens, HepG2, MTT, 24 h incubation
[4] = H37RA, read-out: MIC Mtb H37Ra (µM)
[5] = M. tuberculosis H37Ra, resazurin added after 120 h, read-out: MIC Mtb H37Ra
[6] = H37RA, 120 h, read-out: MIC Mtb H37Ra

| SMILES | MIC [1, 4] | MIC [1, 5] | MIC ([2]; resazurin added after 48 h) | MIC ([3]; 72 h) | MIC ([2]; 48 h) | SI (selectivity index) (HepG2 cells) | IC50 (HepG2 cells) | MIC values for standards, range, M. tuberculosis [1] | MIC values for standards, range, M. smegmatis [2] | MIC ([3]; resazurin added after 72 h) | MIC values for standards, range, M. aurum [3] | MIC [1, 6] |
| --- | --- | --- | --- | --- | --- | --- | --- | --- | --- | --- | --- | --- |
| COc1ccc2c3c1O[C@H]1C[C@@H](OC(=O)c4ccccc4)C=C[C@@]31CCN(C)C2 [1a, 6-O-benzoylgalanthamine] | 79.8 µM | 31.2 µg/mL | ≥ 500 µg/mL | 31.2 µg/mL (≈ 79.8 µM) | – | – | – | – | – | – | – | – |
| COc1ccc2c3c1O[C@H]1C[C@@H](OC(=O)c4ccccc4C)C=C[C@@]31CCN(C)C2 [1b, 6-O-(2-methylbenzoyl)galanthamine] | 35.4 µM | 15.6 µg/mL | – | 31.2 µg/mL (≈ 77.1 µM) | 31.2 µg/mL (≈ 77.1 µM) | – | – | – | – | – | – | – |
| COc1ccc2c3c1O[C@H]1C[C@@H](OC(=O)c4cccc(C)c4)C=C[C@@]31CCN(C)C2 [1c, 6-O-(3-methylbenzoyl)galanthamine] | 35.4 µM | 15.6 µg/mL | – | 15.6 µg/mL (≈ 38.5 µM) | 31.2 µg/mL (≈ 77.1 µM) | – | – | – | – | – | – | – |
| COc1ccc2c3c1O[C@H]1C[C@@H](OC(=O)c4ccc(C)cc4)C=C[C@@]31CCN(C)C2 [1d, 6-O-(4-methylbenzoyl)galanthamine] | 35.4 µM | 15.6 µg/mL | – | 15.6 µg/mL (≈ 38.5 µM) | 31.2 µg/mL (≈ 77.1 µM) | – | – | – | – | – | – | – |
| COc1ccc2c3c1O[C@H]1C[C@@H](OC(=O)c4cccc(C)c4C)C=C[C@@]31CCN(C)C2 [1e, 6-O-(2,3-dimethylbenzoyl)galanthamine] | 17.1 µM | 7.81 µg/mL | – | 15.6 µg/mL (≈ 37.2 µM) | 31.2 µg/mL (≈ 74.5 µM) | 1.05 | 17.9 ± 2.6 µM | – | – | – | – | – |
| COc1ccc2c3c1O[C@H]1C[C@@H](OC(=O)c4cc(C)cc(C)c4)C=C[C@@]31CCN(C)C2 [1f, 6-O-(3,5-dimethylbenzoyl)galanthamine] | 17.1 µM | 7.81 µg/mL | – | 7.81 µg/mL (≈ 18.6 µM) | 7.81 µg/mL (≈ 18.6 µM) | 1.03 | 17.6 ± 4.7 µM | – | – | – | – | – |
| COc1ccc2c3c1O[C@H]1C[C@@H](OC(=O)c4c(C)cc(C)cc4C)C=C[C@@]31CCN(C)C2 [1g, 6-O-(2,4,6-trimethylbenzoyl)galanthamine] | 18 µM | 7.81 µg/mL | – | 15.6 µg/mL (≈ 36 µM) | 31.2 µg/mL (≈ 72.1 µM) | 0.77 | 13.9 ± 0.8 µM | – | – | – | – | – |
| COc1ccccc1C(=O)O[C@H]1C=C[C@@]23CCN(C)Cc4ccc(OC)c(c42)O[C@H]3C1 [1j, 6-O-(2-methoxybenzoyl)galanthamine] | 148 µM | 62.5 µg/mL | – | 125 µg/mL (≈ 297 µM) | 250 µg/mL (≈ 593 µM) | – | – | – | – | – | – | – |
| COc1cccc(C(=O)O[C@H]2C=C[C@@]34CCN(C)Cc5ccc(OC)c(c53)O[C@H]4C2)c1 [1k, 6-O-(3-methoxybenzoyl)galanthamine] | 68.3 µM | 31.2 µg/mL | – | 31.2 µg/mL (≈ 74.1 µM) | 62.5 µg/mL (≈ 148 µM) | – | – | – | – | – | – | – |
| COc1ccc(C(=O)O[C@H]2C=C[C@@]34CCN(C)Cc5ccc(OC)c(c53)O[C@H]4C2)cc1 [1l, 6-O-(4-methoxybenzoyl)galanthamine] | 68.3 µM | 31.2 µg/mL | – | 31.2 µg/mL (≈ 74.1 µM) | 62.5 µg/mL (≈ 148 µM) | – | – | – | – | – | – | – |
| COc1ccc(C(=O)O[C@H]2C=C[C@@]34CCN(C)Cc5ccc(OC)c(c53)O[C@H]4C2)cc1OC [1m, 6-O-(3,4-dimethoxybenzoyl)galanthamine] | 128 µM | 62.5 µg/mL | – | 125 µg/mL (≈ 277 µM) | 250 µg/mL (≈ 554 µM) | – | – | – | – | – | – | – |
| COc1cc(OC)cc(C(=O)O[C@H]2C=C[C@@]34CCN(C)Cc5ccc(OC)c(c53)O[C@H]4C2)c1 [1n, 6-O-(3,5-dimethoxybenzoyl)galanthamine] | 34.6 µM | 15.6 µg/mL | – | 31.2 µg/mL (≈ 69.2 µM) | 31.2 µg/mL (≈ 69.2 µM) | – | – | – | – | – | – | – |
| COc1cc(C(=O)O[C@H]2C=C[C@@]34CCN(C)Cc5ccc(OC)c(c53)O[C@H]4C2)cc(OC)c1OC [1o, 6-O-(3,4,5-trimethoxybenzoyl)galanthamine] | 121 µM | 62.5 µg/mL | – | 125 µg/mL (≈ 260 µM) | 250 µg/mL (≈ 519 µM) | – | – | – | – | – | – | – |
| COc1ccc2c3c1O[C@H]1C[C@@H](OC(=O)c4ccco4)C=C[C@@]31CCN(C)C2 [1s, 6-O-(2-furoyl)galanthamine] | 150 µM | 62.5 µg/mL | – | 250 µg/mL (≈ 655 µM) | ≥ 500 µg/mL | – | – | – | – | – | – | – |
| COC1CC2C(=CC1O)C1CN2Cc2cc3c(cc21)OCO3 (centres unmarked) [3-O-methylpancracine (3), 3-O-methylpancracine] | ≥ 1660 µM | ≥ 500 µg/mL | – | ≥ 500 µg/mL | ≥ 500 µg/mL | – | – | – | – | – | – | – |
| COC1CC2C(=CC1OC(=O)c1cc(C)cc(C)c1)C1CN2Cc2cc3c(cc21)OCO3 (centres unmarked) [3a, 2-O-(3,5-dimethylbenzoyl)-3-O-methylpancracine] | 16.6 µM | 7.81 µg/mL | – | 7.81 µg/mL (≈ 18 µM) | 15.6 µg/mL (≈ 36 µM) | 2.45 | 40.6 ± 7.6 µM | – | – | – | – | – |
| COC1CC2C(=CC1OC(=O)c1c(C)cc(C)cc1C)C1CN2Cc2cc3c(cc21)OCO3 (centres unmarked) [3b, 2-O-(2,4,6-trimethylbenzoyl)-3-O-methylpancracine] | 16.1 µM | 7.81 µg/mL | – | 7.81 µg/mL (≈ 17.5 µM) | 15.6 µg/mL (≈ 34.9 µM) | 1.94 | 31.2 ± 5.4 µM | – | – | – | – | – |
| COC1CC2C(=CC1OC(=O)c1ccc3ccccc3c1)C1CN2Cc2cc3c(cc21)OCO3 (centres unmarked) [3g, 2-O-(2-naphthoyl)-3-O-methylpancracine] | 31.8 µM | 15.6 µg/mL | – | 15.6 µg/mL (≈ 34.3 µM) | 15.6 µg/mL (≈ 34.3 µM) | – | – | – | – | – | – | – |
| O=C(O)c1cn(C2CC2)c2cc(N3CCNCC3)c(F)cc2c1=O [ciprofloxacin, reference compound] | 0.75 µM | 0.25 µg/mL | 0.125 µg/mL (≈ 0.377 µM) | – | – | – | – | 0.125 to 0.25 µg/mL | 0.0625 to 0.125 µg/mL | 0.0156 µg/mL (≈ 0.0472 µM) | 0.0078 to 0.0156 µg/mL | – |
| COc1ccc2c3c1O[C@H]1C[C@@H](O)C=C[C@@]31CCN(C)C2 [galanthamine (1), galanthamine, reference compound] | ≥ 1740 µM | ≥ 500 µg/mL | – | ≥ 500 µg/mL | ≥ 500 µg/mL | – | – | – | – | – | – | – |
| COc1cc2c(cc1OC)[C@@H]1[C@H](O)[C@@H](OC)C=C3CCN(C2)[C@H]31 [galanthine (6), galanthine] | 788 µM | 250 µg/mL | – | 250 µg/mL (≈ 788 µM) | ≥ 500 µg/mL | – | – | – | – | – | – | – |
| COC1C=CC23c4cc5c(cc4CN(CC2O)C3C1)OCO5 (centres unmarked) [haemanthamine (2), haemanthamine] | ≥ 1660 µM | ≥ 500 µg/mL | – | ≥ 500 µg/mL | ≥ 500 µg/mL | – | – | – | – | – | – | – |
| NNC(=O)c1ccncc1 [isoniazid, reference compound] | 1.82 µM | – | 31.2 µg/mL (≈ 228 µM) | 3.91 µg/mL (≈ 28.5 µM) | – | – | – | 0.125 to 0.25 µg/mL | 7.81 to 15.625 µg/mL | – | 1.95 to 3.91 µg/mL | 0.25 µg/mL |
| COc1cc2c(cc1OC)[C@@H](O)O[C@@H]1CC=C3CCN(C)[C@H]3[C@H]21 [lycorenine (9), lycorenine] | ≥ 394 µM | ≥ 125 µg/mL | – | ≥ 125 µg/mL | ≥ 125 µg/mL | – | – | – | – | – | – | – |
| O[C@H]1[C@H]2c3cc4c(cc3CN3CCC(=C[C@@H]1O)[C@H]23)OCO4 [lycorine (7), lycorine] | ≥ 1740 µM | ≥ 500 µg/mL | – | ≥ 500 µg/mL | ≥ 500 µg/mL | – | – | – | – | – | – | – |
| COc1cc2c(cc1OC)[C@@]13C=C[C@@H](O)C[C@@H]1N(CC3)C2 [maritidine (5), maritidine] | ≥ 1740 µM | ≥ 500 µg/mL | – | ≥ 500 µg/mL | ≥ 500 µg/mL | – | – | – | – | – | – | – |
| CO[C@H]1C=C2[C@H]3C[N@@](Cc4cc5c(cc43)OCO5)[C@H]2C[C@@H]1O [montanine (8), montanine] | ≥ 1660 µM | ≥ 500 µg/mL | – | ≥ 500 µg/mL | ≥ 500 µg/mL | – | – | – | – | – | – | – |
| CO[C@H]1/C=C/O[C@@]2(C)Oc3c(C)c(O)c4c(O)c(c(/C=N/N5CCN(C)CC5)c(O)c4c3C2=O)NC(=O)/C(C)=C\C=C\[C@H](C)[C@H](O)[C@@H](C)[C@@H](O)[C@@H](C)[C@H](OC(C)=O)[C@@H]1C [rifampicin, reference compound] | 0.0075 µM | – | 6.25 µg/mL (≈ 7.59 µM) | – | – | – | – | 0.0039 to 0.0078 µg/mL | – | 0.39 µg/mL (≈ 0.474 µM) | 0.39 to 0.78 µg/mL | 0.00625 µg/mL |
| O[C@@H]1C=C[C@]23CCN(Cc4cc5c(cc42)OCO5)[C@H]3C1 [vittatine (4), vittatine] | ≥ 1840 µM | ≥ 500 µg/mL | – | 250 µg/mL (≈ 921 µM) | ≥ 500 µg/mL | – | – | – | – | – | – | – |
